Experimental data taken from PubChem BioAssay AID1963973 (Molecular Pharmacology Branch, DTP, NCI, 2024).
“And” between values parts separate entries of the source, which are not always exact repeats. Equal values may be shown once.

Test system: 883617-216-R-J1-PDC tumor spheroids, viability
Assay: Anticancer human tumor 883617-216-R-J1-PDC patient-derived bladder carcinoma cell line growth inhibition [PI3K]
Details: spheroids with HUVEC and MSC; for viability, T/C: stronger effect = lower value
How it was run: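 Stroma-containing spheroids: tumor line, pooled-donor HUVEC, hMSC. Treatments: targeted agents with PI3K inhibitors. Dosing: clinically relevant, half-log spacing, 10 microM ceiling without known Cmax. Read-out: cell viability.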

[1] = curve of first compound, second compound 0.00316 µM
[2] = curve of first compound, second compound 0.01 µM
[3] = curve of first compound, second compound 0.0316 µM
[4] = curve of first compound, second compound 0.1 µM
[5] = curve of first compound, second compound 0.316 µM
[6] = curve of first compound, second compound 1 µM
[7] = second compound 0.00316 µM, first compound 0.0316 µM
[8] = second compound 0.00316 µM, first compound 0.1 µM
[9] = second compound 0.00316 µM, first compound 0.316 µM
[10] = second compound 0.00316 µM, first compound 1 µM
[11] = second compound 0.00316 µM, first compound 3.16 µM
[12] = second compound 0.00316 µM, first compound 10 µM
[13] = second compound 0.01 µM, first compound 0.0316 µM
[14] = second compound 0.01 µM, first compound 0.1 µM
[15] = second compound 0.01 µM, first compound 0.316 µM
[16] = second compound 0.01 µM, first compound 1 µM
[17] = second compound 0.01 µM, first compound 3.16 µM
[18] = second compound 0.01 µM, first compound 10 µM
[19] = second compound 0.0316 µM, first compound 0.0316 µM
[20] = second compound 0.0316 µM, first compound 0.1 µM
[21] = second compound 0.0316 µM, first compound 0.316 µM
[22] = second compound 0.0316 µM, first compound 1 µM
[23] = second compound 0.0316 µM, first compound 3.16 µM
[24] = second compound 0.0316 µM, first compound 10 µM
[25] = second compound 0.1 µM, first compound 0.0316 µM
[26] = second compound 0.1 µM, first compound 0.1 µM
[27] = second compound 0.1 µM, first compound 0.316 µM
[28] = second compound 0.1 µM, first compound 1 µM
[29] = second compound 0.1 µM, first compound 3.16 µM
[30] = second compound 0.1 µM, first compound 10 µM
[31] = second compound 0.316 µM, first compound 0.0316 µM
[32] = second compound 0.316 µM, first compound 0.1 µM
[33] = second compound 0.316 µM, first compound 0.316 µM
[34] = second compound 0.316 µM, first compound 1 µM
[35] = second compound 0.316 µM, first compound 3.16 µM
[36] = second compound 0.316 µM, first compound 10 µM
[37] = second compound 1 µM, first compound 0.0316 µM
[38] = second compound 1 µM, first compound 0.1 µM
[39] = second compound 1 µM, first compound 0.316 µM
[40] = second compound 1 µM, first compound 1 µM
[41] = second compound 1 µM, first compound 3.16 µM
[42] = second compound 1 µM, first compound 10 µM
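Note: spheroids exposed to agents for 7 days before the viability read.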

Cn1nccc1Nc1nccc(-c2ccn(C(CO)c3ccc(Cl)c(F)c3)c(=O)c2)n1 (configuration not stated) + COc1c(OCCCN2CCOCC2)ccc2c3n(c(=NC(=O)c4cnc(N)nc4)nc12)CCN3
IC50 [1]: 3300 nM | IC50 [2]: 335 nM | IC50 [3]: < 31.6 nM | IC50 [4]: < 31.6 nM | IC50 [5]: < 31.6 nM | IC50 [6]: < 31.6 nM | viability, T/C [7]: 83.4% | viability, T/C [8]: 76.7% | viability, T/C [9]: 64.6% | viability, T/C [10]: 65% | viability, T/C [11]: 47.9% | viability, T/C [12]: 40.4% | viability, T/C [13]: 59.4% | viability, T/C [14]: 59.5% | viability, T/C [15]: 51% | viability, T/C [16]: 40.4% | viability, T/C [17]: 39.9% | viability, T/C [18]: 33.8% | viability, T/C [19]: 39.3% | viability, T/C [20]: 33.5% | viability, T/C [21]: 26.7% | viability, T/C [22]: 27.8% | viability, T/C [23]: 21.5% | viability, T/C [24]: 14.3% | viability, T/C [25]: 12.8% | viability, T/C [26]: 12.8% | viability, T/C [27]: 10.5% | viability, T/C [28]: 7.47% | viability, T/C [29]: 6.96% | viability, T/C [30]: 6.94% | viability, T/C [31]: 5.61% | viability, T/C [32]: 3.51% | viability, T/C [33]: 4.13% | viability, T/C [34]: 1.85% | viability, T/C [35]: 1.07% | viability, T/C [36]: 1.21% | viability, T/C [37]: 2.27% | viability, T/C [38]: 1.46% | viability, T/C [39]: 0.6% | viability, T/C [40]: 0.25% | viability, T/C [41]: 0.12% | viability, T/C [42]: 0.12%

C#Cc1c(F)ccc2cc(O)cc(-c3ncc4c(N5CC6CCC(C5)N6)nc(OCC56CCCN5CC(F)C6)nc4c3F)c12 (configuration not stated)
viability, T/C (compound 0.0316 µM): 99.5% [middle of 4 runs] | viability, T/C (compound 0.1 µM): 95.7% [middle of 4 runs] | viability, T/C (compound 0.316 µM): 100% [middle of 4 runs] | viability, T/C (compound 1 µM): 88% [middle of 4 runs] | viability, T/C (compound 3.16 µM): 80.5% (2×) and 102% and 88.1% | viability, T/C (compound 10 µM): 65.8% [middle of 4 runs] | IC50 (curve of compound): > 10000 nM

CC(=O)c1c(C)c2cnc(Nc3ccc(N4CCNCC4)cn3)nc2n(C2CCCC2)c1=O
viability, T/C (compound 0.000316 µM): 109% [middle of 4 runs] | viability, T/C (compound 0.001 µM): 91.3% [middle of 4 runs] | viability, T/C (compound 0.00316 µM): 76.6% [middle of 4 runs] | viability, T/C (compound 0.01 µM): 87.7% [middle of 4 runs] | viability, T/C (compound 0.0316 µM): 71.2% [middle of 4 runs] | viability, T/C (compound 0.1 µM): 47.9% [middle of 4 runs] | IC50 (curve of compound): 98.5 nM and > 100 nM and 79.7 nM

CC1(C)CCC(Nc2ncc(C(F)(F)F)c(-c3c[nH]c4c(P(C)(C)=O)c(C#N)ccc34)n2)CN1 (configuration not stated) + Cc1nc(NC(=O)N2CCCC2C(N)=O)sc1-c1ccnc(C(C)(C)C(F)(F)F)c1
IC50 [3]: < 31.6 nM | IC50 [4]: < 31.6 nM | IC50 [5]: < 31.6 nM | IC50 [6]: < 31.6 nM | IC50 (curve of first compound, second compound 3.16 µM): < 31.6 nM | IC50 (curve of first compound, second compound 10 µM): < 31.6 nM | viability, T/C [19]: 35% | viability, T/C [20]: 25.2% | viability, T/C [21]: 21.7% | viability, T/C [22]: 18.4% | viability, T/C [23]: 7.32% | viability, T/C [24]: 0.34% | viability, T/C [25]: 27.1% | viability, T/C [26]: 23.6% | viability, T/C [27]: 25.7% | viability, T/C [28]: 20.1% | viability, T/C [29]: 5.12% | viability, T/C [30]: 0.15% | viability, T/C [31]: 23.2% | viability, T/C [32]: 25.2% | viability, T/C [33]: 23.2% | viability, T/C [34]: 12.9% | viability, T/C [35]: 4.57% | viability, T/C [36]: 0.17% | viability, T/C [37]: 18.1% | viability, T/C [38]: 18.6% | viability, T/C [39]: 14.2% | viability, T/C [40]: 19.3% | viability, T/C [41]: 3.08% | viability, T/C [42]: 0.12% | viability, T/C (second compound 3.16 µM, first compound 0.0316 µM): 11.7% | viability, T/C (second compound 3.16 µM, first compound 0.1 µM): 11.7% | viability, T/C (second compound 3.16 µM, first compound 0.316 µM): 8.82% | viability, T/C (second compound 3.16 µM, first compound 1 µM): 11.7% | viability, T/C (second compound 3.16 µM, first compound 3.16 µM): 1.63% | viability, T/C (second compound 3.16 µM, first compound 10 µM): 0.09% | viability, T/C (second compound 10 µM, first compound 0.0316 µM): 5.1% | viability, T/C (second compound 10 µM, first compound 0.1 µM): 4.07% | viability, T/C (second compound 10 µM, first compound 0.316 µM): 4.35% | viability, T/C (second compound 10 µM, first compound 1 µM): 3.57% | viability, T/C (second compound 10 µM, first compound 3.16 µM): 0.59% | viability, T/C (second compound 10 µM, first compound 10 µM): 0.16%

Cn1ncnc1[C@H]1c2n[nH]c(=O)c3cc(F)cc(c23)N[C@@H]1c1ccc(F)cc1
viability, T/C (compound 0.000316 µM): 92.5% [middle of 4 runs] | viability, T/C (compound 0.001 µM): 88.8% (2×) and 83.1% and 89.6% | viability, T/C (compound 0.00316 µM): 91.6% [middle of 4 runs] | viability, T/C (compound 0.01 µM): 84.4% [middle of 4 runs] | viability, T/C (compound 0.0316 µM): 75.7% [middle of 4 runs] | viability, T/C (compound 0.1 µM): 58.2% [middle of 4 runs] | IC50 (curve of compound): > 100 nM

CNC(=O)c1ccc(N2C(=S)N(c3ccc(C#N)c(C(F)(F)F)c3)C(=O)C2(C)C)cc1F + COc1c(OCCCN2CCOCC2)ccc2c3n(c(=NC(=O)c4cnc(N)nc4)nc12)CCN3
IC50 [1]: > 10000 nM | IC50 [2]: > 10000 nM | IC50 [3]: < 31.6 nM | IC50 [4]: < 31.6 nM | IC50 [5]: < 31.6 nM | IC50 [6]: < 31.6 nM | viability, T/C [7]: 72.6% | viability, T/C [8]: 79.7% | viability, T/C [9]: 85.4% | viability, T/C [10]: 87.3% | viability, T/C [11]: 98.2% | viability, T/C [12]: 71.9% | viability, T/C [13]: 61.9% | viability, T/C [14]: 68.4% | viability, T/C [15]: 64.3% | viability, T/C [16]: 63.4% | viability, T/C [17]: 73.6% | viability, T/C [18]: 65.6% | viability, T/C [19]: 29.5% | viability, T/C [20]: 39% | viability, T/C [21]: 47.5% | viability, T/C [22]: 37.7% | viability, T/C [23]: 35.9% | viability, T/C [24]: 29% | viability, T/C [25]: 16.3% | viability, T/C [26]: 15.1% | viability, T/C [27]: 19% | viability, T/C [28]: 17.3% | viability, T/C [29]: 16.9% | viability, T/C [30]: 11.9% | viability, T/C [31]: 10.4% | viability, T/C [32]: 5.99% | viability, T/C [33]: 4.55% | viability, T/C [34]: 5.36% | viability, T/C [35]: 5.23% | viability, T/C [36]: 4.37% | viability, T/C [37]: 3.25% | viability, T/C [38]: 3.07% | viability, T/C [39]: 2.92% | viability, T/C [40]: 3.17% | viability, T/C [41]: 4.14% | viability, T/C [42]: 3.08%
